pIC50: −log10 of the molar value.
Assays:
[1] = system: pAKT in T47D (PI3Kα H1047R mutant) cells; assay: Inhibition of pAKT (alphaLISA Surefire Ultra AKT 1/2/3 pS473) in T47D cells; format: cell-based; conditions: Homo sapiens; T47D (PI3Kα H1047R mutant) cells, 24 hr compound incubation, alphaLISA pS473; read-out: T47D (H1047R) pAKT 24 hr (IC50)
Procedure: The ability of a compound of Formula (I) to inhibit the formation of pAKT was measured using alphaLISA Surefire Ultra AKT 1/2/3 (pS473) Assay Kit (#ALSU-PAKT-B50K) was obtained from Perkin Elmer (Waltham, MA).
To prepare assay plates for pAKT alphaLISA assays, cells were trypsinized, resuspended in fresh media, and viable cells were counted utilizing trypan blue exclusion. Prior to seeding, cells were washed with PBS and resuspended in HBSS (Gibco, #14025092). T47D (12,000/w), SKBR3 (12,000/w), or MKN1 (24,000/w) cells were seeded at 12 μl per well in a solid white flat bottom 384 cell culture plate (Perkin Elmer #6007680).
Immediately after seeding, cells were dosed using an Echo Liquid Handler (Beckman Coulter) with compounds at a 10.4 μm starting concentration and serially diluted (1:4) for a total of 10 concentrations. 14 vehicle (DMSO) and 14 positive control (Alpelisib @3.125 μm) wells were included on each assay plate. Cells were incubated with the compounds (solubilized in DMSO) for approximately 24 hours at 37° C. After 24 hours of treatment, cells were lysed with 3 μl of the 5× lysis buffer (provided and incubated at room temperature for 15 min on a microtiter plate shaker). Once cells were sufficiently lysed, 7.5 μl of the acceptor bead mix (made using the manufacturers recommended dilutions) was added to each well and left on the microtiter plate shaker for 1 min prior to incubating plates at room temperature for 1 hour, in the absence of light. After 1 hour of incubation with the acceptor bead mix, 7.5 μl of the donor bead mix (made using the manufacturers recommended dilutions) was added to each well and left on the microtiter plate shaker for 1 min prior to incubating plates at room temperature overnight in the absence of light. Plates were then imaged the following day using a CLARIOstar microplate reader (BMG Labtech, Germany).
Percent of control values were calculated by subtracting the average signal from the positive control (alpelisib) treated wells from all treated wells (including DMSO control wells) and then divided by the average signal from the vehicle DMSO treated control wells. Percent of vehicle control values were plotted as log(inhibitor) vs. response—Variable slope (four parameters) for curve fitting and IC50 values were determined using XLfit.

[2] = system: T47D (PI3Kα H1047R mutant) cells; assay: Cell viability (CellTiter-Glo 2.0) in T47D cells; format: cell-based; conditions: Homo sapiens, T47D, 72 h, approximately 72 hours
Procedure: This Example illustrates that representative compounds of the invention decrease the viability of cells.
The ability of a compound of Formula (I) to decrease the viability of cells was measured using CellTiter-Glo 2.0 (CTG) Luminescent Cell Viability Assay (#G9241) obtained from Promega (Madison, WI).
To prepare assay plates for viability assays, cells were trypsinized, resuspended in fresh media, and viable cells were counted utilizing trypan blue exclusion. T47D, SKBR3, or MKN1 cells were seeded at 1000 cells in 30 μl per well in a solid white flat bottom 384 cell culture plate (Perkin Elmer #6007680) and incubated at 37° C. overnight.
Assay day 1, cells were dosed using an Echo Liquid Handler (Beckman Coulter) with compounds at a 10 μm starting concentration and serially diluted (1:4) for a total of 10 concentrations. Cells were incubated for approximately 72 hours with the compounds (solubilized in DMSO) at 37° C. After 72 hours of treatment, cell plates were equilibrated to room temperature before adding 15 μl of CTG to each well, plates were then covered in aluminum foil to protect from light, incubated at room temperature for 30 minutes on a microtiter plate shaker, and luminescence readings were collected using a CLARIOstar microplate reader (BMG Labtech, Germany). Percent of vehicle control values were plotted as log(inhibitor) vs. response—Variable slope (four parameters) for curve fitting and IC50 values were determined using XLfit.

Compound: Cc1cc([C@@H](C)Nc2ccc(Cl)nc2C(=O)O)c2nc(N3CCN(c4ncc(C)s4)CC3)c(C#N)nc2c1 [Example 115, (R)-6-chloro-3-((1-(2-cyano-7-methyl-3-(4-(5-methylthiazol-2-yl)piperazin-1-yl)quinoxalin-5-yl)ethyl)amino)picolinic acid]
- pIC50 [1]: 9.00
- pIC50 [2]: 7.50

Compound: Cc1cc([C@@H](C)Nc2ccc(Cl)nc2C(=O)O)c2nc(N3CC(F)(F)C4(CC4)C3)c(C#N)nc2c1 [Example 116, (R)-6-chloro-3-((1-(2-cyano-3-(7,7-difluoro-5-azaspiro[2.4]heptan-5-yl)-7-methylquinoxalin-5-yl)ethyl)amino)picolinic acid]
- pIC50 [1]: 7.82
- pIC50 [2]: 6.70

Compound: Cc1cc([C@@H](C)Nc2ccc(Cl)nc2C(=O)O)c2nc(-n3ccnc3)c(C#N)nc2c1 [Example 117, (R)-6-chloro-3-((1-(2-cyano-3-(1H-imidazol-1-yl)-7-methylquinoxalin-5-yl)ethyl)amino)picolinic acid]
- pIC50 [1]: 7.18
- pIC50 [2]: 6.30

Compound: Cc1cc([C@@H](C)Nc2ccc(Cl)nc2C(=O)O)c2nc(N3C4CCC3COC4)c(C#N)nc2c1 [Example 120, 3-(((1R)-1-(3-(3-oxa-8-azabicyclo[3.2.1]octan-8-yl)-2-cyano-7-methylquinoxalin-5-yl)ethyl)amino)-6-chloropicolinic acid]
- pIC50 [1]: 8.62
- pIC50 [2]: 7.25

Compound: Cc1cc([C@@H](C)Nc2ccc(Cl)nc2C(=O)O)c2nc(N3C[C@@H](F)[C@@H](F)C3)c(C#N)nc2c1 [Example 122, 6-chloro-3-(((R)-1-(2-cyano-3-((3S,4R)-3,4-difluoropyrrolidin-1-yl)-7-methylquinoxalin-5-yl)ethyl)amino)picolinic acid]
- pIC50 [1]: 8.89
- pIC50 [2]: 7.47

Compound: Cc1cc([C@@H](C)Nc2ccc(Cl)nc2C(=O)O)c2nc(N3CC(C)(C)C(F)(F)C3)c(C#N)nc2c1 [Example 123, (R)-6-chloro-3-((1-(2-cyano-3-(3,3-difluoro-4,4-dimethylpyrrolidin-1-yl)-7-methylquinoxalin-5-yl)ethyl)amino)picolinic acid]
- pIC50 [1]: 7.18
- pIC50 [2]: 6.56

Compound: Cc1cc([C@@H](C)Nc2ccc(Cl)nc2C(=O)O)c2nc(NCCC(F)(F)F)c(C#N)nc2c1 [Example 124, (R)-6-chloro-3-((1-(2-cyano-7-methyl-3-((3,3,3-trifluoropropyl)amino)quinoxalin-5-yl)ethyl)amino)picolinic acid]
- pIC50 [1]: 8.72
- pIC50 [2]: 6.90

Compound: Cc1cc([C@@H](C)Nc2ccc(Cl)nc2C(=O)O)c2nc(NCCC(=O)N(C)C)c(C#N)nc2c1 [Example 125, (R)-6-chloro-3-((1-(2-cyano-3-((3-(dimethylamino)-3-oxopropyl)amino)-7-methylquinoxalin-5-yl)ethyl)amino)picolinic acid]
- pIC50 [1]: 8.57
- pIC50 [2]: 6.79

Compound: Cc1cc([C@@H](C)Nc2ccc(Cl)nc2C(=O)O)c2nc(N3CCC(c4ccnn4C)CC3)c(C#N)nc2c1 [Example 126, (R)-6-chloro-3-((1-(2-cyano-7-methyl-3-(4-(1-methyl-1H-pyrazol-5-yl)piperidin-1-yl)quinoxalin-5-yl)ethyl)amino)picolinic acid]
- pIC50 [1]: 9.10
- pIC50 [2]: 7.61

Compound: Cc1cc([C@@H](C)Nc2ccccc2C(=O)O)c2nc(N3CC(F)(F)C3)c(C#N)nc2c1 [Example 127, (R)-2-((1-(2-cyano-3-(3,3-difluoroazetidin-1-yl)-7-methylquinoxalin-5-yl)ethyl)amino)benzoic acid]
- pIC50 [1]: 8.08
- pIC50 [2]: 6.53

Compound: Cc1cc([C@@H](C)Nc2ccc(Cl)nc2C(=O)O)c2nc(N3CC(F)(F)C3)c(C#N)nc2c1 [Example 128, (R)-6-chloro-3-((1-(2-cyano-3-(3,3-difluoroazetidin-1-yl)-7-methylquinoxalin-5-yl)ethyl)amino)picolinic acid]
- pIC50 [1]: 8.85
- pIC50 [2]: 6.92

Compound: Cc1cc([C@@H](C)Nc2ccccc2C(=O)O)c2nc(N3CCC4(CC3)C(F)(F)C4(F)F)c(C#N)nc2c1 [Example 129, (R)-2-((1-(2-cyano-7-methyl-3-(1,1,2,2-tetrafluoro-6-azaspiro[2.5]octan-6-yl)quinoxalin-5-yl)ethyl)amino)benzoic acid]
- pIC50 [1]: 7.73
- pIC50 [2]: 6.48

Compound: Cc1cc([C@@H](C)Nc2ccc(Cl)nc2C(=O)O)c2nc(N3CC[C@H](CO)C3)c(C#N)nc2c1 [Example 158, 6-chloro-3-(((R)-1-(2-cyano-3-((S)-3-(hydroxymethyl)pyrrolidin-1-yl)-7-methylquinoxalin-5-yl)ethyl)amino)picolinic acid]
- pIC50 [1]: 8.44
- pIC50 [2]: 7.06

Compound: Cc1cc([C@@H](C)Nc2ccc(Cl)nc2C(=O)O)c2nc(N3CC[C@@H](CO)C3)c(C#N)nc2c1 [Example 159, 6-chloro-3-(((R)-1-(2-cyano-3-((R)-3-(hydroxymethyl)pyrrolidin-1-yl)-7-methylquinoxalin-5-yl)ethyl)amino)picolinic acid]
- pIC50 [1]: 8.59
- pIC50 [2]: 7.15

Compound: CC(=O)N1CCN(c2nc3c([C@@H](C)Nc4ccc(Cl)nc4C(=O)O)cc(C)cc3nc2C#N)CC1 [Example 160, (R)-3-((1-(3-(4-acetylpiperazin-1-yl)-2-cyano-7-methylquinoxalin-5-yl)ethyl)amino)-6-chloropicolinic acid]
- pIC50 [1]: 8.34
- pIC50 [2]: 7.07

Compound: Cc1cc([C@@H](C)Nc2ccc(Cl)nc2C(=O)O)c2nc(N3CCC(=O)CC3)c(C#N)nc2c1 [Example 161, (R)-6-chloro-3-((1-(2-cyano-7-methyl-3-(4-oxopiperidin-1-yl)quinoxalin-5-yl)ethyl)amino)picolinic acid]
- pIC50 [1]: 8.34
- pIC50 [2]: 7.32

Compound: Cc1cc([C@@H](C)Nc2ccc(Cl)nc2C(=O)O)c2nc(N3CCc4ccncc4C3)c(C#N)nc2c1 [Example 162, (R)-6-chloro-3-((1-(2-cyano-3-(3,4-dihydro-2,7-naphthyridin-2(1H)-yl)-7-methylquinoxalin-5-yl)ethyl)amino)picolinic acid]
- pIC50 [1]: 8.80
- pIC50 [2]: 7.46

Compound: Cc1cc([C@@H](C)Nc2ccc(Cl)nc2C(=O)O)c2nc(N3C[C@@H]4[C@H](CO)[C@@H]4C3)c(C#N)nc2c1 [Example 163, 6-chloro-3-(((R)-1-(2-cyano-3-((1R,5S,6S)-6-(hydroxymethyl)-3-azabicyclo[3.1.0]hexan-3-yl)-7-methylquinoxalin-5-yl)ethyl)amino)picolinic acid]
- pIC50 [1]: 8.17
- pIC50 [2]: 6.72

Compound: COC[C@@H]1[C@H]2CN(c3nc4c([C@@H](C)Nc5ccc(Cl)nc5C(=O)O)cc(C)cc4nc3C#N)C[C@@H]12 [Example 166, 6-chloro-3-(((R)-1-(2-cyano-3-((1R,5S,6R)-6-(methoxymethyl)-3-azabicyclo[3.1.0]hexan-3-yl)-7-methylquinoxalin-5-yl)ethyl)amino)picolinic acid]
- pIC50 [1]: 8.92
- pIC50 [2]: 7.41

Compound: Cc1cc([C@@H](C)Nc2ccc(Cl)nc2C(=O)O)c2nc(N3C[C@@H]4[C@@H](CO)[C@@H]4C3)c(C#N)nc2c1 [Example 167, 6-chloro-3-(((R)-1-(2-cyano-3-((1R,5S,6R)-6-(hydroxymethyl)-3-azabicyclo[3.1.0]hexan-3-yl)-7-methylquinoxalin-5-yl)ethyl)amino)picolinic acid]
- pIC50 [1]: 8.34
- pIC50 [2]: 6.82
